pEC50, pIC50: −log10 of the molar value. ≈ marks a conversion by molar mass, not a printed value.
Assays:
[1] = Inhibition of SARS Coronavirus helicase expressed in Escherichia coli assessed as reduction in dsDNA unwinding activity by FRET assay; set-up: species or system Severe acute respiratory syndrome-related coronavirus
[2] = Inhibition of SARS Coronavirus helicase expressed in Escherichia coli assessed as reduction in ATP hydrolysis preincubated for 5 mins followed by ATP and circular ssDNA M13 addition and measured after 10 mins by malachite green and ammonium molybdate reagent based assay; set-up: species or system Severe acute respiratory syndrome-related coronavirus
Human coronavirus 229E [3] = assay: Antiviral activity against HCoV-229E infected in human MRC-5 cells incubated for 96 hrs by XTT assay; format: functional, organism-based; settings: MRC5, 96 h
[4] = Cytotoxicity against human MRC5 cells incubated for 96 hrs by XTT assay; format: cell-based
[5] = Selectivity ratio of CC50 for human MRC5 cells to EC50 for HCoV-229E infected in human MRC5 cells; format: toxicity, cell-based; settings: read-out: Ratio CC50/EC50
Human coronavirus 229E [6] = assay: Antiviral activity against HCoV-229E infected in human Huh7 cells assessed as reduction in virus induced cytopathic effect incubated for 6 days by cellTiter-Glo assay; format: functional, organism-based; settings: Huh-7, 144 h
Huh-7 = assay: Cytotoxicity against human Huh7 cells incubated for 6 days by cellTiter-Glo assay; format: functional; settings: Huh-7, 144 h, time 6 day
[7] = Cytotoxicity against HAE cells by CellTiter-Glo assay; format: cell-based; settings: human
Human coronavirus OC43 [8] = assay: Antiviral activity against wild type HCoV-OC43 infected in human Huh-7 cells preincubated for 1 hrs followed by overlaying with reduced-serum Medium and measured after 72 hrs ELISpot assay; format: functional, cell-based; settings: Betacoronavirus 1, Huh-7
[9] = Cytotoxicity against African green monkey Vero E6 cells by the CCK8 assay; format: cell-based, Vero C1008; settings: chlorocebus sabaeus
[10] = Cytotoxicity against human Huh-7 cells by CellTiter-Glo assay; format: cell-based
SARS-CoV [11] = assay: Antiviral activity against SARS-CoV expressing green fluorescent protein infected in human airway epithelial cells incubated for 48 hrs by RT-PCR method; format: functional, organism-based; settings: Severe acute respiratory syndrome-related coronavirus, HAE
[12] = Inhibition of SARS Coronavirus helicase pp1ab domain assessed as reduction in helicase activity using DT20Cy3/Release BHQ oligomers by FRET-based assay; set-up: species or system Severe acute respiratory syndrome-related coronavirus
[13] = Inhibition of SARS Coronavirus helicase pp1ab domain assessed as reduction in ATPase activity by phosphomolybdate-malachite green assay; set-up: species or system Severe acute respiratory syndrome-related coronavirus
SARS-CoV [14] = assay: Antiviral activity against SARS-CoV by cell-based assay; format: functional; settings: Severe acute respiratory syndrome-related coronavirus
[15] = Antiviral activity against HCoV-NL63 infected in Rhesus macaque LLC-MK2 cells incubated for 72 hrs by RT-PCR method; format: functional, cell-based; settings: Human coronavirus NL63, LLC-MK2, 72 h
in vitro [16] = settings: rhesus monkey, LLC-MK2 cells
in vitro [17] = settings: rhesus monkey, LLC-MK2 cells; remark: listed apart in the source
in vitro [18] = settings: hamster, BHK-21 cells
Human coronavirus OC43 [19] = assay: Antiviral activity against wild type HCoV-OC43 infected in BHK-21 cells incubated for 72 hrs by RT-PCR method; format: functional, cell-based; settings: Betacoronavirus 1, BHK-21, 72 h
in vitro [20] = settings: hamster, BHK-21 cells; remark: listed apart in the source
[21] = Cytotoxicity against African green monkey Vero E6 cells incubated for 2 days by the MTS assay; format: cell-based, Vero C1008; settings: chlorocebus sabaeus, time 2 day
[22] = Selectivity index, ratio of CC50 for African green monkey Vero E6 cells to EC50 for SARS-CoV infected in African green monkey Vero E6 cells; format: toxicity, Vero C1008; settings: read-out: Ratio CC50/EC50
SARS-CoV [23] = assay: Antiviral activity against SARS-CoV infected in African green monkey Vero E6 cells assessed as reduction in viral replication by ELISA; format: functional, organism-based; settings: Severe acute respiratory syndrome-related coronavirus, Vero C1008
[24] = Selectivity ratio of CC50 for African green monkey Vero cells to EC50 for SARS-CoV FFM1 infected in African green monkey Vero cells; format: toxicity; settings: read-out: Ratio CC50/EC50
SARS-CoV [25] = assay: Antiviral activity against SARS-CoV FFM1 infected in African green monkey Vero cells assessed as reduction in virus induced cytopathic effect treated twice for 7 days; format: functional, organism-based; settings: Severe acute respiratory syndrome-related coronavirus, 168 h
[26] = Selectivity ratio of CC50 for African green monkey Vero cells to EC50 for SARS-CoV FFM2 infected in African green monkey Vero cells; format: toxicity; settings: read-out: Ratio CC50/EC50
SARS-CoV [27] = assay: Antiviral activity against SARS-CoV FFM2 infected in African green monkey Vero cells assessed as reduction in virus induced cytopathic effect treated twice for 7 days; format: functional, organism-based; settings: Severe acute respiratory syndrome-related coronavirus, 168 h
SARS-CoV-2 [28] = assay: Antiviral activity against SARS-CoV-2 infected in African green monkey Vero cells incubated for 48 hrs by RT-PCR method; format: functional, organism-based; settings: Severe acute respiratory syndrome coronavirus 2, Vero
SARS-CoV-2 [29] = assay: Antiviral activity against 2019-nCoV BetaCoV/Wuhan/WIV04/2019 infected in African green monkey VeroE6 cells assessed as reduction in viral yield preincubated with virus for 1 hr followed by cell infection and […] by qRT-PCR method; format: functional, organism-based; settings: Severe acute respiratory syndrome coronavirus 2, BetaCoV/Wuhan/WIV04/2019, Vero C1008
[30] = Selectivity index, ratio of CC50 for African green monkey Vero E6 cells to EC50 for 2019-nCoV Beta CoV/Wuhan/WIV04/2019 infected in African green monkey Vero E6 cells; format: toxicity, Vero C1008; settings: read-out: Ratio CC50/EC50

SMILES: NS(=O)(=O)c1ccc(NC(=O)/C=C/c2ccco2)cc1
- pIC50 [1]: 4.88
- pIC50 [2]: 5.68

SMILES: C[C@H]1O[C@@H](O[C@H]2CC[C@@]3(C)[C@@H](CC[C@]4(C)[C@@H]3C=CC3=C5CC(C)(C)CC[C@]5(CO)[C@H](O)C[C@]34C)[C@]2(C)CO)[C@H](O)[C@@H](O[C@@H]2O[C@H](CO)[C@@H](O)[C@H](O)[C@H]2O)[C@H]1O
- pEC50 (Human coronavirus 229E [3]): 5.77
- CC50 at 96 h [4]: 383 µM
- selectivity ratio [5]: 222

SMILES: CCC(CC)COC(=O)[C@H](C)N[P@](=O)(OC[C@H]1O[C@@](C#N)(c2ccc3c(N)ncnn23)[C@H](O)[C@@H]1O)Oc1ccccc1
- pEC50 (Human coronavirus 229E [6]): 7.62
- CC50 (Huh-7): > 10 µM
- CC50 [7]: > 10 µM
- pEC50 (Human coronavirus OC43 [8]): 6.82
- CC50 [9]: 100 µM
- CC50 [10]: > 10 µM
- pEC50 (SARS-CoV [11]): 7.22

SMILES: CCn1c(S)nc2c1c(=O)[nH]c(=O)n2C
- pIC50 [1]: 4.38
- pIC50 [2]: 5.06

SMILES: COc1cc(CC(C)c2nc(C)c(O)c(C34OC5(O)CC(O)(CC(O)(C5)O3)O4)c2CO)ccc1O (stereo not drawn)
- pIC50 [12]: 5.27
- pIC50 [13]: 5.55

SMILES: COc1cc(C23OC4(O)CC(O)(CC(O)(C4)O2)O3)ccc1O
- pIC50 [12]: 5.57
- pIC50 [13]: 6.17

SMILES: Cc1nc(I)c(C(=O)O)c(C23OC4(O)CC(O)(CC(O)(C4)O2)O3)c1O
- pIC50 [12]: 5.15
- pIC50 [13]: 6.27

SMILES: C[C@@H]1O[C@@H](O[C@H]2[C@H](O[C@H]3CC[C@@]4(C)[C@@H](CC[C@]5(C)[C@@H]4CC=C4[C@@H]6CC(C)(C)CC[C@]6(C(=O)O)CC[C@]45C)[C@]3(C)CO)OC[C@H](O)[C@@H]2O)[C@H](O)[C@H](O)[C@H]1O [ALPHA-HEDERIN]
- MIC (SARS-CoV [14]): 10 µM (≈ 7.51 µg/mL)

SMILES: CC[C@H]1CN2CCc3cc(OC)c(OC)cc3[C@@H]2C[C@@H]1C[C@H]1NCCc2cc(OC)c(OC)cc21 [EMETINE]
- pEC50 [15]: 5.84
- selectivity ratio (in vitro [16]): 2.5
- CC50 at 72 h (in vitro [17]): 3.63 µM
- selectivity ratio (in vitro [18]): 9
- pEC50 (Human coronavirus OC43 [19]): 6.52
- CC50 at 72 h (in vitro [20]): 2.69 µM

SMILES: C/C=C(\C)C(=O)O[C@H]1[C@H](OC(C)=O)[C@]2(CO)[C@H](O)C[C@]3(C)C(=CC[C@@H]4[C@@]5(C)CC[C@H](O[C@@H]6O[C@H](C(=O)O)[C@@H](O[C@@H]7O[C@H](CO)[C@@H](O)[C@H](O)[C@H]7O)[C@H](O)[C@H]6O[C@@H]6O[C@H](CO)[C@@H](O)[C@H](O)[C@H]6O)[C@](C)(CO)[C@@H]5CC[C@]43C)[C@@H]2CC1(C)C [ESCIN IA]
- CC50 at 48 h [21]: 25 µM
- selectivity ratio [22]: 2.5
- pIC50 (SARS-CoV [23]): 5.22

SMILES: CC1(C)[C@@H](O[C@H]2O[C@H](C(=O)O)[C@@H](O)[C@H](O)[C@H]2O[C@@H]2O[C@H](C(=O)O)[C@@H](O)[C@H](O)[C@H]2O)CC[C@]2(C)[C@H]3C(=O)C=C4[C@@H]5C[C@@](C)(C(=O)O)CC[C@]5(C)CC[C@@]4(C)[C@]3(C)CC[C@@H]12 [GLYCYRRHIZIN]
- selectivity ratio [24]: 66
- pEC50 (SARS-CoV [25]): 3.44
- selectivity ratio [26]: 66
- pEC50 (SARS-CoV [27]): 3.44

SMILES: CCN(CCO)CCCC(C)Nc1ccnc2cc(Cl)ccc12 (stereo not drawn) [HYDROXYCHLOROQUINE]
- pIC50 (SARS-CoV-2 [28]): 6.14

SMILES: CC[C@@]1([C@H]2O[C@H]([C@H]3O[C@@](O)(CO)[C@H](C)C[C@@H]3C)C[C@H]2C)CC[C@H]([C@@]2(C)CC[C@]3(C[C@H](O)[C@@H](C)[C@@H]([C@H](C)[C@H](OC)[C@@H](C)C(=O)O)O3)O2)O1 [MONENSIN SODIUM]
- pEC50 [15]: 5.81
- pEC50 (Human coronavirus OC43 [19]): 5.42

SMILES: COc1c(C)c2c(c(O)c1C/C=C(\C)CCC(=O)OCCN1CCOCC1)C(=O)OC2 [MYCOPHENOLATE MOFETIL]
- pEC50 [15]: 6.64
- selectivity ratio (in vitro [16]): 13
- CC50 at 72 h (in vitro [17]): 3.01 µM
- selectivity ratio (in vitro [18]): 2.2
- pEC50 (Human coronavirus OC43 [19]): 5.80
- CC50 at 72 h (in vitro [20]): 3.43 µM

SMILES: COc1c(C)c2c(c(O)c1C/C=C(\C)CCC(=O)O)C(=O)OC2 [MYCOPHENOLIC ACID]
- pEC50 [15]: 6.74
- selectivity ratio (in vitro [16]): 19
- CC50 at 72 h (in vitro [17]): 3.44 µM
- selectivity ratio (in vitro [18]): 1.8
- pEC50 (Human coronavirus OC43 [19]): 5.71
- CC50 at 72 h (in vitro [20]): 3.55 µM

SMILES: N=C(N)c1ccc2cc(OC(=O)c3ccc(N=C(N)N)cc3)ccc2c1 [NAFAMOSTAT]
- pEC50 (SARS-CoV-2 [29]): 4.65
- CC50 [9]: > 100 µM
- selectivity ratio [30]: > 4.4

SMILES: CC(=O)Oc1ccccc1C(=O)Nc1ncc([N+](=O)[O-])s1 [NITAZOXANIDE]
- pEC50 (SARS-CoV-2 [29]): 5.67
- CC50 [9]: > 35.5 µM
- selectivity ratio [30]: > 16.7

SMILES: Nc1nc2c(ncn2CCC(CO)CO)c(=O)[nH]1 [PENCICLOVIR]
- pIC50 (SARS-CoV-2 [29]): 4.02
- CC50 [9]: > 400 µM
- selectivity ratio [30]: > 4.2

SMILES: Nc1ccc(/N=N/c2ccccc2)c(N)n1 [PHENAZOPYRIDINE]
- pEC50 [15]: 5.69
- selectivity ratio (in vitro [16]): > 9.9
- CC50 at 72 h (in vitro [17]): > 20 µM
- selectivity ratio (in vitro [18]): > 10
- pEC50 (Human coronavirus OC43 [19]): 5.72
- CC50 at 72 h (in vitro [20]): > 20 µM

SMILES: Cc1cc(/C=C/c2ccc3cc(N(C)C)ccc3[n+]2C)c(C)n1-c1ccccc1 [PYRVINIUM PAMOATE]
- pEC50 [15]: 5.47
- pEC50 (Human coronavirus OC43 [19]): 5.49

SMILES: COC(=O)[C@H]1[C@H]2C[C@@H]3c4[nH]c5cc(OC)ccc5c4CCN3C[C@H]2C[C@@H](OC(=O)c2cc(OC)c(OC)c(OC)c2)[C@@H]1OC [RESERPINE]
- CC50 at 48 h [21]: 25 µM
- selectivity ratio [22]: 7.3
- pIC50 (SARS-CoV [23]): 5.47

SMILES: NC(=O)c1ncn([C@@H]2O[C@H](CO)[C@@H](O)[C@H]2O)n1 [RIBAVIRIN]
- CC50 [9]: > 400 µM

SMILES: CC(C)[C@@H]1NC(=O)[C@H](C)OC(=O)[C@@H](C(C)C)NC(=O)[C@@H](C(C)C)OC(=O)[C@H](C(C)C)NC(=O)[C@H](C)OC(=O)[C@@H](C(C)C)NC(=O)[C@@H](C(C)C)OC(=O)[C@H](C(C)C)NC(=O)[C@H](C)OC(=O)[C@@H](C(C)C)NC(=O)[C@@H](C(C)C)OC1=O [VALINOMYCIN]
- CC50 at 48 h [21]: 68 µM
- selectivity ratio [22]: 80
- pIC50 (SARS-CoV [23]): 6.07
